The values that follow are results of earlier work, collected in US20070162983A1, “Diagnostic and therapeutic use of the human sgpl1 gene and protein for neurodegenerative diseases” (Evotec NeuroSciences GmbH, priority 2003, published 2007).

Data set [1] relates to SGPL1. Particulars: known specific inhibitors of SGPL1 activity; for IC50: read-out: IC50, inhibition of SGPL1 activity.
The conditions of data set [2]: dogs, estimated (Tosaka et al., Stroke 2001).

`CCCC[C@H](C)[C@H](O)[C@H](O)C[C@H](C)C[C@@H](O)CCCC[C@@H](O)C[C@H](O)[C@H](C)N`: the IC50 in data set [1] was 20 µM.
As for 2-vinyl analog of sphinganine phosphate, in data set [1], the IC50 is 2.4 µM.
Regarding `CCCCCCCCCCCCCCC[C@H](O)[C@@H](N)COP(=O)(O)O` (single isomer, unassigned) [2D,3L-isomer of sphinganine phosphate], the Ki in data set [1] (read-out: Ki, inhibition of SGPL1 activity) is 9.7 µM.
Take `CCCCCCCCCCCCC/C=C/[C@@H](O)[C@@H](N)COP(=O)(O)O` [S1P, sphingosine-1-phosphate]: in data set [2], the “half-life in cerebrospinal fluid (CSF)” value is on record as “approximately 10 minutes”.

A word on the IC50: it is the concentration that inhibits the measured activity by half. The Ki is a measure of affinity in units of concentration, obtained from inhibition or displacement.
